Like-named read-outs stand apart in the source and are kept apart here.
Tests used:
PEO1 cells [1] = test: GSH content (OPA); assay type: cell-based, human; conditions: 25-µM D, 20 µM 3-BP, 24 h
Procedure: (§1) The content of reduced glutathione was assayed with OPA [63]. Briefly, the cells were seeded in wells of a transparent 96-well plate at a density of 7.5 × 10^3/well (MRC-5) or 1 × 10^4/well (cancer cells) and allowed to attach at 37 °C for 24 h. After 24-h treatment with the tested compounds, the medium was removed, the cells were washed with PBS (150 µL per well) and then added with 60 µL/well of cold redox quenching buffer (RQB) containing 20-mM HCl, 5% TCA, 5-mM DTPA and 10-mM L-ascorbic acid. The plate was shaken for 5 minutes and centrifuged for 5 minutes at 4000 rpm. Next, the supernatant was transferred into two 96-well black plates (“+NEM” and “–NEM”; 25 µL/well). Within the “+NEM” plate, 4 µL/well of freshly prepared 7.5-mM NEM in cold RQB buffer was added. Then, 1-M phosphate buffer (pH 7.0) was added into both plates (40 µL/well), and the plates were shaken for 5 min at 700 rpm. Finally, 160 µL/well of cold 0.1-M phosphate buffer (pH 6.8) and 25 µL/well of freshly prepared 0.5% OPA in methanol were added into both plates. Both plates were incubated for 30 minutes at room temperature with constant shaking. Fluorescence was then measured at 355/430 nm. The protein contents in the cell lysates were determined according to Lowry et al.. The concentration of reduced glutathione was determined by subtracting […] and calculated with respect to the protein content.

MRC-5 fibroblasts [2] = test: GSH content (OPA); assay type: cell-based, human; conditions: 25-µM D, 40 µM 3-BP, 24 h
Procedure: as §1

SKOV3 cells [3] = test: GSH content (OPA); assay type: cell-based, human; conditions: 25-µM D, 40 µM 3-BP, 24 h
Procedure: as §1

PEO1 cells [4] = test: Level of reactive oxygen species (DHE, DCFDA); assay type: cell-based, human; conditions: 25-µM D, 20 µM 3-BP, 24 h
Procedure: (§2) The level of ROS in the MRC-5, SKOV3 and PEO1 cells after 24-h exposure to delphinidin chloride and 3-BP was assayed with 2′,7′-dichlorofluorescein diacetate (DCFDA) and dihydroethidium (DHE). Briefly, cells were seeded in a black 96-well flat clear-bottom plate at a density of 7.5 × 10^3/well for MRC-5 fibroblasts and 1 × 10^4 /well for cancer cells and allowed to attach at 37 °C for 24 h. After 24-h incubation, the medium was removed and replaced with a medium containing the examined substances at concentrations given previously. After incubation, the medium was removed and replaced by a 10-µM fluorescent probe (DHE or DCFDA) (100 µL/well). Stock solutions of the probes were prepared in DMSO, and working solutions were prepared in PBS. Fluorescence was measured at 490/529 nm (DCFDA) and 475/579 nm (DHE) for 2 h at 37 °C in 1-min intervals.

MRC-5 fibroblasts [5] = test: Level of reactive oxygen species (DHE, DCFDA); assay type: cell-based, human; conditions: 25-µM D, 40 µM 3-BP, 24 h
Procedure: as §2

SKOV3 cells [6] = test: Level of reactive oxygen species (DHE, DCFDA); assay type: cell-based, human; conditions: 25-µM D, 40 µM 3-BP, 24 h
Procedure: as §2

PEO1 cells [7] = test: Cytotoxicity, Neutral Red survival assay; assay type: cell-based, human; conditions: read-out: IC50 of cell survival
Procedure: (§3) SKOV3 and PEO1 cells were seeded in a clear 96-well plate at a density of 1 × 10^4 cells/well in 100-µL culture medium. MRC-5 cells were seeded at a density of 7.5 × 10^3/well and allowed to attach for 24 h at 37 °C. After incubation, the cells were treated with delphinidin chloride in a concentration range of 10–100 µM and 3-BP at concentrations between 5–25 µM for PEO1 and 10–50 µM for MRC-5 and SKOV3. Nontreated cells were used as a control. Stock solutions of tested substances were prepared in DMSO and their working solutions in culture media. The DMSO concentration was adjusted to 0.2% in all samples, which had no significant effect on the treated cells. After 24-h exposure time, the medium was removed and replaced with 100 µL of […] neutral red solution, and the cells were incubated at 37 °C for 1 h. Then, the cells were washed with PBS; fixed with 100 µL/well of 50% ethanol, 49% H2O and 1% glacial acetic acid and shaken (700 rpm) at room temperature for 20 min. Absorbance was measured at 540 nm against 620 nm.

MRC-5 fibroblasts [8] = test: Cytotoxicity, Neutral Red survival assay; assay type: cell-based, human
Procedure: as §3

SKOV3 cells [9] = test: Cytotoxicity, Neutral Red survival assay; assay type: cell-based, human; conditions: read-out: IC50 of cell survival
Procedure: as §3

NCI-H441 cells = tested on: NCI-H441 cells; set-up: method as in PMID 24124611; conditions: cited from earlier work
HT29 cells = tested on: HT29 cells; set-up: method as in PMID 17729219; conditions: cited from earlier work
SKOV3 cells [10] = test: Apoptosis and necrosis assay (RealTime-Glo Annexin V); assay type: cell-based, human; conditions: after 24 h
Procedure: The levels of apoptosis and necrosis were assayed using the RealTime-Glo™ Annexin V Apoptosis and Necrosis Assay. Cells were seeded into a white 96-well plate with optical bottom, cultured and treated adequately, as stated above. After 24 h, 100 μL of the freshly prepared reagent was added to each well according to the manufacturer’s protocols. The fluorescence and luminescence were measured according to the protocols.

AGS cells = tested on: AGS cells; set-up: method as in PMID 15680311; conditions: 50–200 µM; cited from earlier work
DU145 cell line = tested on: DU145 cell line; set-up: method as in PMID 27462923; conditions: DU145, up to 150 µM; cited from earlier work

Compound | GSH level (PEO1 cells [1]) | GSH level (MRC-5 fibroblasts [2]) | GSH level (SKOV3 cells [3]) | level of DCFDA-reactive ROS (PEO1 cells [4]) | level of DHE-detectable ROS (PEO1 cells [4]) | level of DCFDA-reactive ROS (MRC-5 fibroblasts [5]) | level of DHE-detectable ROS (MRC-5 fibroblasts [5]) | level of DCFDA-reactive ROS (SKOV3 cells [6]) | other results
O=C(O)C(=O)CBr [3-BP, 3-bromopyruvic acid] | decreased | neither 3-BP or D alone modified | increased | increased | decreased | not affected | decreased | not affected | level of DHE-detectable ROS (SKOV3 cells [6]): not affecting; IC50 (PEO1 cells [7]; Homo sapiens, PEO1, 24 h): 18.7 µM; survival of MRC-5 fibroblasts (MRC-5 fibroblasts [8]; up to a concentration of 50 µM): not compromised; IC50 (SKOV3 cells [9]; Homo sapiens, SK-OV-3, 24 h): 40.5 µM
Oc1cc(O)c2cc(O)c(-c3cc(O)c(O)c(O)c3)[o+]c2c1 [Delphinidin chloride, 3,3′,4′,5,5′,7-hexahydroxyflavylium] | did not affect | neither 3-BP or D alone modified | without effect | increased | increased | not affected | decreased | not affected | IC50 (NCI-H441 cells): 58 µM; IC50 (HT29 cells): 35 µM; induction of apoptosis (SKOV3 cells [10]): induced apoptosis; IC50 (PEO1 cells [7]; Homo sapiens, PEO1, 24 h, PEO1, 24-h exposure, Neutral Red, ND = no reduction of survival in the concentration range studied): < 100 µM; IC50 (PEO1 cells [7]; PEO1, 24-h exposure, Neutral Red, ND = no reduction of survival in the concentration range studied): 71.5 µM; survival / viability of MRC-5 fibroblasts (MRC-5 fibroblasts [8]; up to 100 µM): did not affect; IC50 (SKOV3 cells [9]; Homo sapiens, SK-OV-3, 24 h, SKOV3, 24-h exposure, Neutral Red, ND = no reduction of survival in the concentration range studied): < 100 µM; IC50 (SKOV3 cells [9]; SKOV3, 24-h exposure, Neutral Red, ND = no reduction of survival in the concentration range studied): 57.5 µM; viability (AGS cells): did not affect significantly the viability; viability (DU145 cell line): did not affect the viability

— paper PMC7828231, “Delphinidin Increases the Sensitivity of Ovarian Cancer Cell Lines to 3-bromopyruvate” (International Journal of Molecular Sciences, 2021)
